{"source": "ChEMBL document CHEMBL6074674", "about": "“Development of Novel Silicon-Based Hydrophobic Tags (SiHyT) for Targeted Proteins Degradation” (J Med Chem, 2024)", "key": {"[1]": {"system": "PC-9", "experiment": "SiHyT-mediated degrader activity at RNF149/EGFR mutant in human PC-9 cells assessed as induction of EGFR degradation by measuring EGFR expression level at 2 uM incubated for 24 hrs followed by drug wash-out and measured after 24 hrs by western blot analysis", "assay_type": "cell-based"}, "[2]": {"experiment": "Cmax in ICR mouse at 1 mg/kg, iv by LC-MS/MS analysis", "assay_type": "ADME, organism-based", "conditions": "in vivo"}, "[3]": {"system": "HUVEC", "experiment": "Cytotoxicity against human HUVEC cells assessed as reduction in cell viability", "assay_type": "toxicity, cell-based"}, "[4]": {"system": "E3 ubiquitin-protein ligase RNF149/Epidermal growth factor receptor (Homo sapiens), P00533+Q8NC42 [UNDEFINED MUTATION]", "sequence (P00533 whole entry, looked up, change not shown)": "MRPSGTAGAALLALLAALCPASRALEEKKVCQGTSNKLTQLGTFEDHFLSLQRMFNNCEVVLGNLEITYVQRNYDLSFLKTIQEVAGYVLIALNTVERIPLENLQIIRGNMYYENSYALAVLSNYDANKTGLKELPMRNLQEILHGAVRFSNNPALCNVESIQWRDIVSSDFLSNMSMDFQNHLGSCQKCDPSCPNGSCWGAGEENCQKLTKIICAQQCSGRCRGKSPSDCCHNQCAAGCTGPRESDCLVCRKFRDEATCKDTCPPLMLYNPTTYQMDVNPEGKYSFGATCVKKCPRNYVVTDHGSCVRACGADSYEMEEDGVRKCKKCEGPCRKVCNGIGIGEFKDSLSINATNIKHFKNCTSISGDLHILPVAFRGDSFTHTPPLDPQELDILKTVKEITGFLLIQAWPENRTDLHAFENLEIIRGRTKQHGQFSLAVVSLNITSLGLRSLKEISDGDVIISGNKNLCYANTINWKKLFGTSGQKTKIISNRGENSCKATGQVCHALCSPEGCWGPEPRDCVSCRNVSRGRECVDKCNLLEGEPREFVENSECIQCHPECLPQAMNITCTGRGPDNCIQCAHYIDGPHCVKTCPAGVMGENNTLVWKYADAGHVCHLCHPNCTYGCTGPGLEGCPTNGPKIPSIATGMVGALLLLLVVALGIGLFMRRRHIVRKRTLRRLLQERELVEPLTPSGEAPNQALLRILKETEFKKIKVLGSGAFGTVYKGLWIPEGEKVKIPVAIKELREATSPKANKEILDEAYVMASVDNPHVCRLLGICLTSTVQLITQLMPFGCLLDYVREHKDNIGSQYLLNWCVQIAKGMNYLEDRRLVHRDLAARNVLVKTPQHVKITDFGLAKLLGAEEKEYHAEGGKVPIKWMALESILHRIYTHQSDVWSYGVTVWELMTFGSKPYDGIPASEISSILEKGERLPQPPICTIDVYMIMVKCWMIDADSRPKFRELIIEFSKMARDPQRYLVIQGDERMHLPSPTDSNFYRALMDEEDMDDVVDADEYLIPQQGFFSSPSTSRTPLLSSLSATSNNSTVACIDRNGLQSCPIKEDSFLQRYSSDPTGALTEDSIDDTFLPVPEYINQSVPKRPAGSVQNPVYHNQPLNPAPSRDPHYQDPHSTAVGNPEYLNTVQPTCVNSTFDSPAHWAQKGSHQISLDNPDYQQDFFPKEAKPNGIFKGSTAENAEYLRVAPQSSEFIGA", "sequence (Q8NC42 whole entry, looked up, change not shown)": "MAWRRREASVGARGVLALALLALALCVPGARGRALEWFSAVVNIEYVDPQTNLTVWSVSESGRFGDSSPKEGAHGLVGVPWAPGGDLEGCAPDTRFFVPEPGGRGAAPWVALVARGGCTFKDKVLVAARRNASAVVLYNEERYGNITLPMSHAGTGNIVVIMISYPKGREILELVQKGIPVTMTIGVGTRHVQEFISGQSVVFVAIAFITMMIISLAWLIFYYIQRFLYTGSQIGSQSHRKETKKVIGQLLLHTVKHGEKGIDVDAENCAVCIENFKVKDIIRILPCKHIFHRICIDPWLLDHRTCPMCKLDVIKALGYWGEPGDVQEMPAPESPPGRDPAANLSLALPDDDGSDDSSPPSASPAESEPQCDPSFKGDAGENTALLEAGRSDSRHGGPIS", "experiment": "SiHyT-mediated degrader activity at RNF149/EGFR mutant in human HCC827 cells assessed as induction of EGFR degradation by measuring decrease in EGFR level at 1 uM measured after 9 hrs by western blot analysis", "assay_type": "cell-based"}, "[5]": {"system": "HEK-293T", "experiment": "Cytotoxicity against human HEK293T cells assessed as reduction in cell viability", "assay_type": "toxicity, cell-based"}, "[6]": {"system": "PC-9", "experiment": "SiHyT-mediated degrader activity at RNF149/EGFR mutant in human PC-9 cells assessed as induction of EGFR degradation by measuring decrease in half-time of EGFR at 2 uM incubated for 6 to 24 hrs in presence of protein synthesis inhibitor, cycloheximide by western blot analysis", "assay_type": "cell-based", "conditions": "time 6-24 hrs"}, "[7]": {"experiment": "Toxicity in mouse assessed as pathological changes in spleen administered for 14 days by Hematoxylin-Eosin staining based analysis", "assay_type": "tissue-based", "conditions": "in vivo, 336 h, time 14 day"}, "[8]": {"experiment": "Oral bioavailability in ICR mouse at 10 mg/kg by LC-MS/MS analysis", "assay_type": "ADME, organism-based", "conditions": "in vivo"}, "[9]": {"system": "PC-9", "experiment": "SiHyT-mediated degrader activity at RNF149/EGFR mutant in human PC-9 cells assessed as induction of EGFR degradation by measuring decrease in EGFR level at 2 uM measured after 24 hrs by western blot analysis", "assay_type": "cell-based"}, "[10]": {"system": "E3 ubiquitin-protein ligase RNF149/Epidermal growth factor receptor (Homo sapiens), P00533+Q8NC42 [UNDEFINED MUTATION]", "experiment": "SiHyT-mediated degrader activity at RNF149/EGFR mutant in human HCC827 cells assessed as induction of EGFR degradation by measuring EGFR expression level at 1 uM incubated for 24 hrs followed by drug wash-out and measured after 24 hrs by western blot analysis", "assay_type": "cell-based"}, "[11]": {"system": "PC-9", "experiment": "Induction of apoptosis in human PC-9 cells at 0.5 to 2 uM incubated for 48 hrs by AnnexinV-FITC/PI staining based flow cytometry", "assay_type": "functional, cell-based", "conditions": "dose 0.5-2 µM"}, "[12]": {"experiment": "Toxicity in mouse assessed as pathological changes in lungs administered for 14 days by Hematoxylin-Eosin staining based analysis", "conditions": "in vivo, 336 h, time 14 day"}, "[13]": {"system": "PC-9", "experiment": "Induction of interaction between RNF149/EGFR mutant in human PC-9 cells by pull-down based LC-MS/MS analysis", "assay_type": "cell-based"}, "[14]": {"system": "PC-9", "experiment": "SiHyT-mediated degrader activity at RNF149/EGFR mutant in human PC-9 cells assessed as induction of EGFR degradation by measuring decrease in EGFR level at 2 uM measured after 9 hrs by western blot analysis", "assay_type": "cell-based"}, "[15]": {"experiment": "Intrinsic clearance of the compound in mouse liver microsomes at 1 uM in presence of NADPH by LC-MS/MS analysis", "assay_type": "ADME, Microsome", "conditions": "read-out: CLH"}, "[16]": {"system": "Mus musculus", "experiment": "In vivo induction of EGFR mutant degradation in tumor of mouse xenografted with human PC-9 cells assessed as decrease in EGFR expression at 10 mg/kg, po measured after 6 to 48 hrs by immunoblot analysis", "assay_type": "functional, organism-based", "conditions": "time 6-48 hrs"}, "[17]": {"experiment": "Tmax in ICR mouse at 1 mg/kg, iv by LC-MS/MS analysis", "assay_type": "ADME, organism-based", "conditions": "in vivo"}, "[18]": {"system": "PC-9", "experiment": "Antiproliferative activity against human PC-9 cells assessed as decrease in cell survival measured after 72 hrs by CCK-8 assay", "assay_type": "functional, cell-based", "conditions": "PC-9, 72 h"}, "[19]": {"molecular_target": "Epidermal growth factor receptor (Homo sapiens) (UniProt P00533)", "sequence (P00533 whole entry)": "as the sequence (P00533 whole entry, looked up, change not shown) above", "experiment": "Induction of EGFR mutant degradation in human PC-9 cells transfected with RNF149 shRNA at 1 uM by western blot analysis", "assay_type": "cell-based"}, "[20]": {"experiment": "Half life of the compound in human liver microsomes at 1 uM in presence of NADPH by LC-MS/MS analysis", "assay_type": "ADME, Microsome"}, "[21]": {"system": "E3 ubiquitin-protein ligase RNF149/Epidermal growth factor receptor (Homo sapiens), P00533+Q8NC42 [UNDEFINED MUTATION]", "experiment": "SiHyT-mediated degrader activity at RNF149/EGFR mutant in human HCC827 cells assessed as induction of EGFR degradation by measuring decrease in EGFR expression level at 1 uM pretreated with E1 ligase inhibitor, PYR41 for 4 hrs followed by incubation with compound for 24 hrs by western blot analysis", "assay_type": "cell-based"}, "[22]": {"system": "E3 ubiquitin-protein ligase RNF149/Epidermal growth factor receptor (Homo sapiens), P00533+Q8NC42 [UNDEFINED MUTATION]", "experiment": "SiHyT-mediated degrader activity at RNF149/EGFR mutant in human HCC827 cells assessed as induction of EGFR degradation by measuring decrease in EGFR level at 1 uM measured after 24 hrs by western blot analysis", "assay_type": "cell-based"}, "[23]": {"experiment": "MRT in ICR mouse at 10 mg/kg, po by LC-MS/MS analysis", "assay_type": "ADME, organism-based", "conditions": "in vivo"}, "[24]": {"experiment": "Intrinsic clearance of the compound in human liver microsomes at 1 uM in presence of NADPH by LC-MS/MS analysis", "assay_type": "ADME, Microsome", "conditions": "read-out: CLH"}, "[25]": {"system": "E3 ubiquitin-protein ligase RNF149/Epidermal growth factor receptor (Homo sapiens), P00533+Q8NC42 [UNDEFINED MUTATION]", "experiment": "SiHyT-mediated degrader activity at RNF149/EGFR mutant in human HCC827 cells assessed as induction of EGFR degradation at 1 uM cells incubated in serum-free media for 8 hrs followed by incubation with compound for 24 hrs by western blot analysis", "assay_type": "cell-based"}, "[26]": {"experiment": "AUC in ICR mouse at 1 mg/kg, iv by LC-MS/MS analysis", "assay_type": "ADME, organism-based", "conditions": "in vivo"}, "[27]": {"system": "E3 ubiquitin-protein ligase RNF149/Epidermal growth factor receptor (Homo sapiens), P00533+Q8NC42 [UNDEFINED MUTATION]", "experiment": "SiHyT-mediated degrader activity at […] mutant in human HCC827 cells assessed as decrease in EGFR expression level at 2 uM measured after 12 hrs by proteomics analysis", "assay_type": "cell-based"}, "[28]": {"system": "E3 ubiquitin-protein ligase RNF149/Epidermal growth factor receptor (Homo sapiens), P00533+Q8NC42 [UNDEFINED MUTATION]", "experiment": "SiHyT-mediated degrader activity at RNF149/EGFR mutant in human HCC827 cells assessed as induction of EGFR degradation by measuring decrease in EGFR expression level at 1 uM pretreated with lysosome inhibitor, 3-MA for 4 hrs followed by incubation with compound for 24 hrs by western blot analysis", "assay_type": "cell-based"}, "[29]": {"system": "E3 ubiquitin-protein ligase RNF149/Epidermal growth factor receptor (Homo sapiens), P00533+Q8NC42 [UNDEFINED MUTATION]", "experiment": "SiHyT-mediated degrader activity at RNF149/EGFR mutant in human HCC827 cells assessed as induction of EGFR degradation by measuring decrease in EGFR expression level at 1 uM pretreated with proteasome inhibitor, MG-132 for 4 hrs followed by incubation with compound for 24 hrs by western blot analysis", "assay_type": "cell-based"}, "[30]": {"experiment": "Toxicity in mouse assessed as pathological changes in heart administered for 14 days by Hematoxylin-Eosin staining based analysis", "assay_type": "tissue-based", "conditions": "in vivo, 336 h, time 14 day"}, "[31]": {"system": "MCF-10A", "experiment": "Cytotoxicity against human MCF-10A cells assessed as reduction in cell viability", "assay_type": "toxicity, cell-based"}, "[32]": {"system": "PC-9", "experiment": "Induction of interaction between RNF149/EGFR mutant in human PC-9 cells measured after 6 hrs by co-immunoprecipitation analysis", "assay_type": "cell-based"}, "[33]": {"experiment": "Cmax in ICR mouse at 10 mg/kg, po by LC-MS/MS analysis", "assay_type": "ADME, organism-based", "conditions": "in vivo"}, "[34]": {"system": "HCC827", "experiment": "Induction of apoptosis in human HCC827 cells at 0.5 to 2 uM incubated for 48 hrs by AnnexinV-FITC/PI staining based flow cytometry", "assay_type": "functional, cell-based", "conditions": "dose 0.5-2 µM"}, "[35]": {"system": "PC-9", "experiment": "Induction of cell cycle arrest in human PC-9 cells assessed as increase in cell accumulation at G1 phase at 0.5 to 2 uM incubated for 24 hrs by propidium iodide staining based flow cytometry", "assay_type": "functional", "conditions": "dose 0.5-2 µM"}, "[36]": {"experiment": "Half life in ICR mouse at 10 mg/kg, po by LC-MS/MS analysis", "assay_type": "ADME, organism-based", "conditions": "in vivo"}}, "note": "Activity calls are given as the source filed them. The rule behind the calls is not given here.", "data": [{"smiles": "COc1cc2ncnc(Nc3ccc(F)c(Cl)c3)c2cc1OCCn1cc(CCCO[Si](c2ccccc2)(c2ccccc2)C(C)(C)C)nn1", "values": [{"measurement": "Activity", "setting": "[1]", "result": "inactive"}, {"measurement": "Cmax", "setting": "[2]", "result": 2210, "unit": "ng/mL"}, {"measurement": "Activity", "setting": "[3]", "result": "Toxic"}, {"measurement": "Activity", "setting": "[4]", "result": "Active"}, {"measurement": "Activity", "setting": "[5]", "result": "Toxic"}, {"measurement": "Activity", "setting": "[6]", "result": "Active"}, {"measurement": "Activity", "setting": "[7]", "result": "Non-toxic"}, {"measurement": "bioavailability", "setting": "[8]", "result": 8.67, "unit": "%"}, {"measurement": "Activity", "setting": "[9]", "result": "Active"}, {"measurement": "Activity", "setting": "[10]", "result": "inactive"}, {"measurement": "Activity", "setting": "[11]", "result": "Dose-dependent-effect"}, {"measurement": "Activity", "setting": "[12]", "result": "Non-toxic"}, {"measurement": "Activity", "setting": "[13]", "result": "Active"}, {"measurement": "Activity", "setting": "[14]", "result": "Active"}, {"measurement": "CLint scaled at 1 µM", "setting": "[15]", "result": 21.9, "unit": "mL/min/kg"}, {"measurement": "Activity", "setting": "[16]", "result": "Active"}, {"measurement": "Tmax", "setting": "[17]", "result": 4.8, "unit": "min"}, {"measurement": "IC50", "setting": "[18]", "result": 340, "unit": "nM"}, {"measurement": "Activity", "setting": "[19]", "result": "inactive"}, {"measurement": "half-life at 1 µM", "setting": "[20]", "result": "> 1", "unit": "h"}, {"measurement": "Activity", "setting": "[21]", "result": "inactive"}, {"measurement": "Activity", "setting": "[22]", "result": "Active"}, {"measurement": "MRT", "setting": "[23]", "result": 2.57, "unit": "h"}, {"measurement": "CLint scaled at 1 µM", "setting": "[24]", "result": 9.3, "unit": "mL/min/kg"}, {"measurement": "Activity", "setting": "[25]", "result": 87.2, "unit": "%"}, {"measurement": "AUC", "setting": "[26]", "result": 2164.76, "unit": "ng·mL·h"}, {"measurement": "Activity", "setting": "[27]", "result": "Active"}, {"measurement": "Activity", "setting": "[28]", "result": "Active"}, {"measurement": "Activity", "setting": "[29]", "result": "inactive"}, {"measurement": "Activity", "setting": "[30]", "result": "Non-toxic"}, {"measurement": "Activity", "setting": "[31]", "result": "Toxic"}, {"measurement": "Activity", "setting": "[32]", "result": "Active"}, {"measurement": "Cmax", "setting": "[33]", "result": 683, "unit": "ng/mL"}, {"measurement": "Activity", "setting": "[34]", "result": "Dose-dependent-effect"}, {"measurement": "Activity", "setting": "[35]", "result": "Dose-dependent-effect"}, {"measurement": "half-life", "setting": "[36]", "result": 1.29, "unit": "h"}]}]}
